This is an account of results in ChEMBL document CHEMBL5465560, “Selectivity Literature for EUbOPEN Chemogenomic Library” (2024).

Experiment [1] concerns the target G protein-coupled receptor kinase 4 (Homo sapiens) (UniProt P32298). Nature of the experiment: Selectivity interaction (KinomeScan (DiscoverX)) EUB0000607a GRK4. Particulars: at 10 µM.
Experiment [2] concerns the target T1, cGMP-dependent protein kinase 1 (Homo sapiens) (UniProt Q13976).
T1 sequence (whole entry): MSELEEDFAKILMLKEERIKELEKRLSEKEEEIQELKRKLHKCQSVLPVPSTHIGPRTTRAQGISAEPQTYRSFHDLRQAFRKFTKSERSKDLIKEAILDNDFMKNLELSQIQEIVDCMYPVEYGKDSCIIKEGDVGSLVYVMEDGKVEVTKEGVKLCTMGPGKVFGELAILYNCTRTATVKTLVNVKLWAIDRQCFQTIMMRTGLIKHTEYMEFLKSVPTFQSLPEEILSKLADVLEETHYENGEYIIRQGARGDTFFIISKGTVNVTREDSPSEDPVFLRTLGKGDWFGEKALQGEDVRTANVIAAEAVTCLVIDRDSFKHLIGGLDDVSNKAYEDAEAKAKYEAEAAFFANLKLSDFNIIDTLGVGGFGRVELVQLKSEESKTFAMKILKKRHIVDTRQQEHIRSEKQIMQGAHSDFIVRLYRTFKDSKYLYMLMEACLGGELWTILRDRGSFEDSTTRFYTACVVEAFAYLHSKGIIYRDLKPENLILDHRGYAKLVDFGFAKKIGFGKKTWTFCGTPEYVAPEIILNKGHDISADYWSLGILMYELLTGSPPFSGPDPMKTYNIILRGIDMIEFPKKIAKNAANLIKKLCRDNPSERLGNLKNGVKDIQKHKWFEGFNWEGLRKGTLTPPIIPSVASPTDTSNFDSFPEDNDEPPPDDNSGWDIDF
Nature of the experiment: Selectivity interaction (SelectScreen profiling (Invitrogen)) EUB0000607a PRKG1. Particulars: at 2 µM.

The target in experiment [3] is Serine/threonine-protein kinase PAK 4 (Homo sapiens, UniProt O96013). Put plainly: Selectivity interaction (KinomeScan (DiscoverX)) EUB0000666a PAK4. The note with it: at 10 µM.
Experiment [4] concerns the target T2, Histone-arginine methyltransferase CARM1 (Homo sapiens) (UniProt Q86X55).
T2 sequence (whole entry): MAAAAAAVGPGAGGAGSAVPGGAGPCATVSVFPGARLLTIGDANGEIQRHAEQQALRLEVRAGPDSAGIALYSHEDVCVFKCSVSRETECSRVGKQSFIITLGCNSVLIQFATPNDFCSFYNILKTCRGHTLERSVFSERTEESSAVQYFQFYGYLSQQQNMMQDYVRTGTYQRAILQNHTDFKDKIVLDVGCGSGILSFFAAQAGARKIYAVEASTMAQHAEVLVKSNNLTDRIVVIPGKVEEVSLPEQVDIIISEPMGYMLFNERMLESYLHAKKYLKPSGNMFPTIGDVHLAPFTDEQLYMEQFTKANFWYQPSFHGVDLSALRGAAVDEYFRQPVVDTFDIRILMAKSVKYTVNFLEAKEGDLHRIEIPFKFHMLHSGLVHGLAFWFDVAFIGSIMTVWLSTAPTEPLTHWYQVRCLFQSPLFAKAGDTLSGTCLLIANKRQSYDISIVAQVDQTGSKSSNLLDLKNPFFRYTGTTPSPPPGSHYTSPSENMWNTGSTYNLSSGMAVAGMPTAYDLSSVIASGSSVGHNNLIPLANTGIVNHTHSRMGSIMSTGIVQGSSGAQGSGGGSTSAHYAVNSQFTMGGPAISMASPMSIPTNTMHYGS
Particulars: MM1.S, at 3 µM.

The target of experiment [5] is Serine/threonine-protein kinase N1 (Homo sapiens, UniProt Q16512). Put plainly: Selectivity interaction (KinomeScan (DiscoverX)) EUB0000655a PKN1. The note with it: at 10 µM.
Experiment [6] concerns the target Receptor tyrosine-protein kinase erbB-3 (Homo sapiens) (UniProt P21860). Put plainly: Selectivity interaction (KinomeScan (DiscoverX)) EUB0001079a ERBB3. The note with it: at 1 µM.
Experiment [7] has as its target T3, Muscle, skeletal receptor tyrosine-protein kinase (Homo sapiens) (UniProt O15146).
T3 sequence (whole entry): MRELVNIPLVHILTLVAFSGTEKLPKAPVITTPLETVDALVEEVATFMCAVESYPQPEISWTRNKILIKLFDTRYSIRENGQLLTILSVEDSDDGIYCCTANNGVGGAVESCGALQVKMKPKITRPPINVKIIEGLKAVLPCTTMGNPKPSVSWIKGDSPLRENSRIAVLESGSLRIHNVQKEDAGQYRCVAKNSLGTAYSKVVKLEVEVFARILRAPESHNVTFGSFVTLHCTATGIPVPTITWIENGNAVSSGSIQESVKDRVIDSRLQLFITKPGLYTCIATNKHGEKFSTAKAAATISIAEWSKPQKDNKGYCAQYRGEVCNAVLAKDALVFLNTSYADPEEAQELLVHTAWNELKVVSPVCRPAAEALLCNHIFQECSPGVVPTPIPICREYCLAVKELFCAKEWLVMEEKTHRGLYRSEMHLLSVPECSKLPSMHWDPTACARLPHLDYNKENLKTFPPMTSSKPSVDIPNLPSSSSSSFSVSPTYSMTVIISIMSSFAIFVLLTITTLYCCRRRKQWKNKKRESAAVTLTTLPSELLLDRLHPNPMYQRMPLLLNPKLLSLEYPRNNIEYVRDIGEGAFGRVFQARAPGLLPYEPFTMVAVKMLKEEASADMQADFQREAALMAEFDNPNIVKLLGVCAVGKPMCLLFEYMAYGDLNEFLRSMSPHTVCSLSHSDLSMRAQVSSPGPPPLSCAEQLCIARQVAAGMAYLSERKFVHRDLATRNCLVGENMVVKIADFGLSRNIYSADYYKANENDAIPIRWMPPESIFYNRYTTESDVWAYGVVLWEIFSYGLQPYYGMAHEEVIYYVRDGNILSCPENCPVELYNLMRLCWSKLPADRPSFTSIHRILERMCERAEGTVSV
Put plainly: Selectivity interaction (KinomeScan (DiscoverX)) EUB0001079a MUSK. The note with it: at 1 µM.

In experiment [8] the target is 3',5'-cyclic-AMP phosphodiesterase 4D (Homo sapiens) (UniProt Q08499). Nature of the experiment: Selectivity interaction (Safety Panel 44tm (Eurofins)) EUB0000162b PDE4D. Particulars: at 10 µM.
In experiment [9] the target is Type-1 angiotensin II receptor (Homo sapiens, UniProt P30556). Put plainly: Selectivity interaction (Angiotensin II AT1 receptor binding assay, human recombinant ) EUB0000877a AGTR1.
Experiment [10] concerns the target MAP/microtubule affinity-regulating kinase 3 (Homo sapiens) (UniProt P27448). Put plainly: Selectivity interaction (ActivX KiNativ screen (kinase selectivity in THP-1 cell lysates)) EUB0000639a MARK3. The experiment is classed as subcellular. Particulars: lysate, at 1 µM.
For experiment [11], the system named is Epidermal growth factor receptor (Homo sapiens), P00533 [L858R]. Particulars: at 10 µM.

Type-1 angiotensin II receptor, sequence (P30556 whole entry): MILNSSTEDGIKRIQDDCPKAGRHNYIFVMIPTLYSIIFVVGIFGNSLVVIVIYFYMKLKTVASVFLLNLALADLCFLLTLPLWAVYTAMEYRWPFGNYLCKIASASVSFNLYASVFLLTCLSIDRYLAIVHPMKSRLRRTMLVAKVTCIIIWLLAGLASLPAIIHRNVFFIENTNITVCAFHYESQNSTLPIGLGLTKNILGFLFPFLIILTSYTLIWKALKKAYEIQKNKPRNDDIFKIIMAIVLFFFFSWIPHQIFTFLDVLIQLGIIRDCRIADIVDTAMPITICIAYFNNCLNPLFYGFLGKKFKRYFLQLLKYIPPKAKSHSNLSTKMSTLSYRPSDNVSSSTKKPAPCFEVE
Serine/threonine-protein kinase N1, sequence (Q16512 2-942 limits assumed): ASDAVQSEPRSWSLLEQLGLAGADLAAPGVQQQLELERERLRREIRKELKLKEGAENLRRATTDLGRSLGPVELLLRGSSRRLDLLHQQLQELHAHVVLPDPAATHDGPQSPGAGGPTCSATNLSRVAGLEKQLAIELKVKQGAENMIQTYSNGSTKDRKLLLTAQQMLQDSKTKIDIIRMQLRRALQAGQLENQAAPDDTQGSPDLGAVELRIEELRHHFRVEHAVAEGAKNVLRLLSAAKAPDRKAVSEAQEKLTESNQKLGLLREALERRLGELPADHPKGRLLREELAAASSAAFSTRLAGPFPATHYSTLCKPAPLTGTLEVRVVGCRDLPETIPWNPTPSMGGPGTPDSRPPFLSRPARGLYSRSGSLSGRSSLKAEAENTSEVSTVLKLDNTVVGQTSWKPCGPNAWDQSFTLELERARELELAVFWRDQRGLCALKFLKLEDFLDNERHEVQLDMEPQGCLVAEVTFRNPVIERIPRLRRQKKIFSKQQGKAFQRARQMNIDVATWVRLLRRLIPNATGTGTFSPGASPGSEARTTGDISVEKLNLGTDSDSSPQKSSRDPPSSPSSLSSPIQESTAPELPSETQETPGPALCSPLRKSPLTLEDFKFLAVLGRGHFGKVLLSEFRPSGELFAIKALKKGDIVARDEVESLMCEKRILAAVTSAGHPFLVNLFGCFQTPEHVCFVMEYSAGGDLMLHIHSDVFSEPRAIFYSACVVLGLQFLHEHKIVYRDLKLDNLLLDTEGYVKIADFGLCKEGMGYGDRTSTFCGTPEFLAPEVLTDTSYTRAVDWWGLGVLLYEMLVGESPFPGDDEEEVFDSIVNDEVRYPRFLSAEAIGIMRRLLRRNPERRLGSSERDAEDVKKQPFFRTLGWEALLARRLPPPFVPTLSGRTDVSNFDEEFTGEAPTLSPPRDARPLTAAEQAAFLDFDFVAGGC
Receptor tyrosine-protein kinase erbB-3 (Homo sapiens), sequence (P21860 whole entry): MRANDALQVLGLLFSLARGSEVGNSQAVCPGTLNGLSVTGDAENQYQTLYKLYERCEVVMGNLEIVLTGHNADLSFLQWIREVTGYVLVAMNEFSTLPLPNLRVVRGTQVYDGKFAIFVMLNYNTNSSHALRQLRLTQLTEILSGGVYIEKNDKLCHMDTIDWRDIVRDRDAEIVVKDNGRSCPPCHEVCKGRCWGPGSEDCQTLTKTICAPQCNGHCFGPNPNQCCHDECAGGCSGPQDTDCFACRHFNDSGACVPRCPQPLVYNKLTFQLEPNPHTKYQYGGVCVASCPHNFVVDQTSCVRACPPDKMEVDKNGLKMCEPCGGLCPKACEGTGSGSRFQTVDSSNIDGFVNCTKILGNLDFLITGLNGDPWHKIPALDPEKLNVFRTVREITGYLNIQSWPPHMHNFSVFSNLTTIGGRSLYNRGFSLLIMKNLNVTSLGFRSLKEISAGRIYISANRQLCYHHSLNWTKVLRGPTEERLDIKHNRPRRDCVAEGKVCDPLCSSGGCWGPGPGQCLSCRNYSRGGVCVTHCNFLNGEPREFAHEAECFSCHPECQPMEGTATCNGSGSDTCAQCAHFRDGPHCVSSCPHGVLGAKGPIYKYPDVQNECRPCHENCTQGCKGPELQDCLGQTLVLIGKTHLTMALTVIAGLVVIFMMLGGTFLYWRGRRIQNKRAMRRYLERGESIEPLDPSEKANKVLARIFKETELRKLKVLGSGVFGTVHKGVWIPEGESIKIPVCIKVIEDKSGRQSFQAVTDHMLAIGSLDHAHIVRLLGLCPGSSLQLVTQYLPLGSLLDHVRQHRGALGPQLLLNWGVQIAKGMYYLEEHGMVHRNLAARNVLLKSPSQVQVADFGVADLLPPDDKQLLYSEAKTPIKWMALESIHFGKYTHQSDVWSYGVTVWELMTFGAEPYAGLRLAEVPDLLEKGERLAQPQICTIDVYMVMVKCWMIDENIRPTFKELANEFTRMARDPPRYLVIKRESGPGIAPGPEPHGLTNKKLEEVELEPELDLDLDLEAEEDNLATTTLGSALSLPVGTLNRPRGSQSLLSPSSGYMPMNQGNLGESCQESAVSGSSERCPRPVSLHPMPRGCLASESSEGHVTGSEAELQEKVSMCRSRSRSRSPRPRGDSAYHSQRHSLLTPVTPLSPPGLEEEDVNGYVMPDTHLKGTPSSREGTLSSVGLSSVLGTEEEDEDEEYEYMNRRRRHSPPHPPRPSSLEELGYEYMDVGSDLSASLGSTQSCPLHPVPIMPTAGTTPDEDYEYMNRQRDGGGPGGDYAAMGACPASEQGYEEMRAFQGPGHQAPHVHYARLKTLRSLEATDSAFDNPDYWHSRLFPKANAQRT
Serine/threonine-protein kinase PAK 4, sequence (O96013 whole entry, looked up): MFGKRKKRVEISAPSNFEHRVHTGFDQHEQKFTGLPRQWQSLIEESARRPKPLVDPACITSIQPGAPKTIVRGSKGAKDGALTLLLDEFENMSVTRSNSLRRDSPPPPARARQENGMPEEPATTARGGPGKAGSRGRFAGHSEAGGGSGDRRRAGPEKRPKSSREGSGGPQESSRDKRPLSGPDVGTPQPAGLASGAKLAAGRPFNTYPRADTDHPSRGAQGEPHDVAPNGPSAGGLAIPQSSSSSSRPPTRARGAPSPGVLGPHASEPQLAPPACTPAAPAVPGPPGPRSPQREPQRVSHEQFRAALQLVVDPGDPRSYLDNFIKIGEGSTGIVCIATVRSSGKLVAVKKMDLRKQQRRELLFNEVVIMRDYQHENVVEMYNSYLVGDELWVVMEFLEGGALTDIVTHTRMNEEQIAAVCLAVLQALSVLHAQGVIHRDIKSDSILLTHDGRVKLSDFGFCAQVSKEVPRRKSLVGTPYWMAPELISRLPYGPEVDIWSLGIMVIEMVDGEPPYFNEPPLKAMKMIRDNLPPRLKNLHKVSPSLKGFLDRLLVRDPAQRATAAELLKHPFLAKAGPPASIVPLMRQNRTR
MAP/microtubule affinity-regulating kinase 3 (Homo sapiens), sequence (P27448 whole entry, looked up): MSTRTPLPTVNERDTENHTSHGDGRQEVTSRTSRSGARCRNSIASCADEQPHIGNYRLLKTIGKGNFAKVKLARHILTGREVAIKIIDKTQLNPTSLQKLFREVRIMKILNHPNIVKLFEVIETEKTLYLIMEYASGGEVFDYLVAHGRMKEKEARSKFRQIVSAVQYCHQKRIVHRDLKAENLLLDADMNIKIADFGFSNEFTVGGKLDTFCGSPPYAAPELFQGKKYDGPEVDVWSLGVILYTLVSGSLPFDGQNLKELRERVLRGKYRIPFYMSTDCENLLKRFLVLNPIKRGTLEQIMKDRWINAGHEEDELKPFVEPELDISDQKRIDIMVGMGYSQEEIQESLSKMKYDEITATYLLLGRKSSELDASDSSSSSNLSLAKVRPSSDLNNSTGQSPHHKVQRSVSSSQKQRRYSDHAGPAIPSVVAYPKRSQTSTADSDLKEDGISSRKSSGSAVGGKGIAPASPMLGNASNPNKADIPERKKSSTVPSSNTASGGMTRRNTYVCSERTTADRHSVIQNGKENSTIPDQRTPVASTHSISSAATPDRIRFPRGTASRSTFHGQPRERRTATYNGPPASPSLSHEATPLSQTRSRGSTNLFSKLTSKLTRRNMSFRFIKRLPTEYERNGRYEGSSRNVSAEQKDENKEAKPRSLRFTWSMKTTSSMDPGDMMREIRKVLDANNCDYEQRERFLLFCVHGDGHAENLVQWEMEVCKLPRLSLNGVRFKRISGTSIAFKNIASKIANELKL
3',5'-cyclic-AMP phosphodiesterase 4D (Homo sapiens), sequence (Q08499 whole entry): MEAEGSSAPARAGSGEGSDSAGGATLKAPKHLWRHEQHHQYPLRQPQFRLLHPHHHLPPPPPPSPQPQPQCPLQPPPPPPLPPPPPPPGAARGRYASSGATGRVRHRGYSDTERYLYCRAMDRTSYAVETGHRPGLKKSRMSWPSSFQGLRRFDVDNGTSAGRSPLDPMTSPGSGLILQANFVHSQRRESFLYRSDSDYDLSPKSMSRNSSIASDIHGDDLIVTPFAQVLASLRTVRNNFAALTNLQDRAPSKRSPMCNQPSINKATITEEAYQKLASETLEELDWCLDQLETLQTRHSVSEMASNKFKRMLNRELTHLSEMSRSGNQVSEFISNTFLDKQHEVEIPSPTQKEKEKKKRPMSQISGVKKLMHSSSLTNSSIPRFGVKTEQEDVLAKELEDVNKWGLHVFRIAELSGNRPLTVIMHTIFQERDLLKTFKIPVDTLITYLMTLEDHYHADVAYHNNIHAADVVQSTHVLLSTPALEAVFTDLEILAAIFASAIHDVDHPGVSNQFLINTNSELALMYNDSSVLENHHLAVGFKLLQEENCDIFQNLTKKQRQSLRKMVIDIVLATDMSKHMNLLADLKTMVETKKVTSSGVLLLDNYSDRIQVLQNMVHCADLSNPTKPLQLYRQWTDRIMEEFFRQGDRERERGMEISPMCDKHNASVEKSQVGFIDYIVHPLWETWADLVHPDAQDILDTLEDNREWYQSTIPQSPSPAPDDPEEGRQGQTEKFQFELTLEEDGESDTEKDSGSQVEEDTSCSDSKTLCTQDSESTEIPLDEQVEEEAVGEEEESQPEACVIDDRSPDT

Compound `CNC(=O)Nc1ccc(-c2nc(N3CC4CCC(C3)O4)c3cnn(C4CCC5(CC4)OCCO5)c3n2)cc1` registered a % of control in experiment [1] of 100%. In experiment [2], this compound displayed a % of inhibition of 1%.
Compound `O=C(NOC[C@H](O)CO)c1ccc(F)c(F)c1Nc1ccc(I)cc1F` returned a % of control in [3] of 100%.
In the case of `CNCCN1CCC(c2cc(CN(C)C(=O)c3cccc(Oc4ccccc4)c3)ccn2)CC1`, the % of growth rate in experiment [4] was -31%.
In turn, `CN(C)CCOc1ccc(-c2nc(-c3ccncc3)c(-c3ccc4c(c3)CC/C4=N\O)[nH]2)cc1` displayed a % of control in experiment [5] of 92%.
For the compound `Nc1cnc(N2CCc3cc(S(=O)(=O)Nc4c(F)cc(Cl)cc4F)cc(N4CCCC4=O)c32)nc1` [TP-020n], the % of control in experiment [6] and in experiment [7] was 100% each time.
The compound `CN(C)C(=O)Cn1cc(-c2ccc(-c3cncc4ccccc34)cc2)cn1` showed a % of control in experiment [8] of 54%.
Regarding `CCC(=O)N1CC[C@H](Nc2ncnc3c2CN(c2cnc(OC)c(C(F)(F)F)c2)CC3)C1` [LENIOLISIB], in [9], the IC50 (commonly the concentration needed to halve the response being measured) was over 30 µM.
With `CC[C@@H]1[C@H](F)C(=O)N[C@@H]1COc1nccc2cc(C(N)=O)c(OC)cc12` [ZIMLOVISERTIB], the % of inhibition in experiment [10] was 4.3%.
Regarding `COCC(=O)NC/C=C/c1ccc2ncnc(Nc3ccc(Oc4ccc(C)nc4)c(C)c3)c2c1` [CP-724714], in experiment [11], the % of control turned out to be 0.6%.
